Consider three compounds from patent publication US4500516A, “Antibacterial pharmaceutical composition” (priority 1982, dated 1985).

Where a name gives a salt, the structure may show the parent alone. Read-outs that look alike come from different tables or passages of the source.

The conditions of data set [1]: cited from earlier work.
The conditions of data set [2]: cited from earlier work. This is another data set of the same source.
For data set [3] the following is noted: cited from earlier work. This is another data set of the same source.
Data set [4] has as its system infectious inflammatory diseases. The settings on record: prior-art drugs; cited from earlier work.
The conditions of data set [5]: rabbit, in vivo, po, 5 mg/kg, cited from earlier work; for total quantity removed, of the total quantity administered: 2880 min.
Data set [6] concerns pathogenic microorganisms. The settings on record: cited from earlier work.
For data set [7] the following is noted: cited from earlier work. The source holds these as a separate data set.
The conditions of data set [8]: prior-art drugs; cited from earlier work.
Data set [9] in a line: in vivo. The settings on record: rabbit, urine, 50 mg/kg.
A further data set concerns white mice. To be noted: cited from earlier work.
Data set [10] has as its system Staphylococcus aureus haemolyticus. The experiment in a line: bacteriostatic concentration. It is filed as cell-based.
A further data set concerns Bac. mycoides. The experiment in a line: microbe, parasite or virus in culture. It is filed as cell-based. To be noted: Bacillus mycoides, read-out: bacteriostatic concentration.
For a further data set, the system named is Bac. coil. Put plainly: bacteriostatic concentration. The data set is classed as cell-based.
The conditions of data set [11]: rabbit, in vivo, 50 mg/kg.
Data set [12] is described as follows: in vivo. To be noted: rabbit, blood.

On to `O=C1CN(N=CC=Cc2ccc([N+](=O)[O-])o2)C(=O)N1` [Furagin, N-[β-(5'-nitrofuryl-2')-acrylidene]-1-aminohydantoin], for which the solubility in water entry in data set [1] is recorded as “very poorly soluble in water”. In data set [2], the pK was 6. The intolerance result in data set [3] (in vivo) was “in quite a number of cases, said pharmaceutical composition is observed to meet with intolerance”. Further, the spectrum of action result in data set [4] was “wider spectrum of therapeutic action than the aforesaid Nitrofurantoin and Furadantin”. Further, in data set [5], the “total quantity removed, of the total quantity administered” value is given as 2.75±0.41% and the “concentrations in the urine, Furagin versus Solafur” value is recorded as “roughly equal”.

As a reminder, the Cmax is the highest concentration seen after dosing. As usually defined, the Tmax is the time at which the peak concentration occurs. In general, LD50 refers to the dose at which mortality reaches 50%. On to `O=C1CN(N=Cc2ccc([N+](=O)[O-])o2)C(=O)N1` [Nitrofurantoin, 1-(5'-nitrofurfurylideneamino)-hydantoin], for which the bacteriostatic concentration value result in data set [6] (in words) is “comparatively high”. In addition, the intolerance result in data set [3] (medical practice) is “Sometimes this pharmaceutical composition is observed to meet with intolerance”. Moreover, the “removal from the organism” value in data set [7] (in vivo) is listed as “quickly removed from the organism”. Also, in data set [7] (oral), the “absorption from the gastrointestinal tract” value was “quickly absorbable from the gastrointestinal tract”; the “drug concentration in the blood and in the urine” value is recorded as “capable of reaching a level sufficient to produce a therapeutic effect”. For the same compound, the toxicity result in [8] is on record as “noticeably toxic”. Also, the spectrum of action result in data set [4] is “relatively limited spectrum of action”. Moreover, in the data set “in vivo [9]”, the Cmax was 610 µg/mL and the Tmax is 1 h. The LD50 in the data set on white mice (white mice, oral administration) is recorded as 166.7 mg/kg.

As for `O=C1CN(N=CC=Cc2ccc([N+](=O)[O-])o2)C(=O)N1` [Solafur, potassium salt of N-[β-(5'-nitrofuryl-2')-acrylidene]-1-aminohydantoin], the MIC (in [10]; in the data set on Bac. mycoides; in the data set on Bac. coil) was 2.5 µg/mL in each case. Moreover, in [11], the “total excretion of Solafur with urine” value was found to be 3.43 ± 0.3 mg. In addition, the “synergistic action with antibiotics” value in data set [6] (a range of antibiotics, most pathogenic microorganisms) is “capability of producing synergistic action with a range of antibiotics upon most pathogenic microorganisms”. The solubility in water entry in [1] is given as “higher than that of the aforementioned Furagin”. Further, the “side effects on faster administration” value in [3] (in vivo, iv) is “headache and nausea”. For the same compound, in data set [3] (in vivo), the intolerance entry was “in some cases this pharmaceutical composition is observed to meet with intolerance”. The spectrum of action entry in data set [4] is given as “broader spectrum of action compared to Furagin”. In addition, in “in vivo [12]”, the concentration at 0.25 h came to 2.8 µg/mL. Also, the 50% lethal dose (LD50) with white mice (mouse, in vivo, po) is 390 mg/kg. The “total quantity removed, of the total quantity administered” value in data set [5] is recorded as 2.83±0.48%. For the same compound, the “concentrations in the urine, Furagin versus Solafur” value in data set [5] is on record as “roughly equal”.
